Our source for the IC50 values is patent US10023564B2, “G protein-coupled receptor kinase 2 inhibitors and methods for use of the same” (THE REGENTS OF THE UNIVERSITY OF MICHIGAN, priority 2014, dated 2018).

The IC50 is the concentration at which inhibition is half-maximal. Low values mean greater potency, high ones weaker potency.

The target of the assay is ROCK1 (Homo sapiens (Human), UniProt Q13464). The assay can be described thus: Rho-associated coiled-coil kinase (ROCK) assay, ADP-Glo system. In kind it is biochemical. Conditions: 0.1 μg ROCK1, 1 μg S6K substrate, 100 μM ATP, 60 min. As to the method:
Rho-associated coiled-coil kinase (ROCK) assays were performed with the ADP-Glo system using 0.1 μg ROCK1 and 1 μg S6K substrate, and 100 μM ATP for 60 min prior to addition of ADP-GLO Reagent, and allowed to incubate for an additional 40 min prior to the addition of the Kinase Detection Reagent and imaging on a PHERASTAR system.
(In general: ADP-Glo first removes unused ATP, then detects ADP through luciferase.)

Molecules are shown by their SMILES.

Sequence of ROCK1 (Q13464 whole entry, species assumed): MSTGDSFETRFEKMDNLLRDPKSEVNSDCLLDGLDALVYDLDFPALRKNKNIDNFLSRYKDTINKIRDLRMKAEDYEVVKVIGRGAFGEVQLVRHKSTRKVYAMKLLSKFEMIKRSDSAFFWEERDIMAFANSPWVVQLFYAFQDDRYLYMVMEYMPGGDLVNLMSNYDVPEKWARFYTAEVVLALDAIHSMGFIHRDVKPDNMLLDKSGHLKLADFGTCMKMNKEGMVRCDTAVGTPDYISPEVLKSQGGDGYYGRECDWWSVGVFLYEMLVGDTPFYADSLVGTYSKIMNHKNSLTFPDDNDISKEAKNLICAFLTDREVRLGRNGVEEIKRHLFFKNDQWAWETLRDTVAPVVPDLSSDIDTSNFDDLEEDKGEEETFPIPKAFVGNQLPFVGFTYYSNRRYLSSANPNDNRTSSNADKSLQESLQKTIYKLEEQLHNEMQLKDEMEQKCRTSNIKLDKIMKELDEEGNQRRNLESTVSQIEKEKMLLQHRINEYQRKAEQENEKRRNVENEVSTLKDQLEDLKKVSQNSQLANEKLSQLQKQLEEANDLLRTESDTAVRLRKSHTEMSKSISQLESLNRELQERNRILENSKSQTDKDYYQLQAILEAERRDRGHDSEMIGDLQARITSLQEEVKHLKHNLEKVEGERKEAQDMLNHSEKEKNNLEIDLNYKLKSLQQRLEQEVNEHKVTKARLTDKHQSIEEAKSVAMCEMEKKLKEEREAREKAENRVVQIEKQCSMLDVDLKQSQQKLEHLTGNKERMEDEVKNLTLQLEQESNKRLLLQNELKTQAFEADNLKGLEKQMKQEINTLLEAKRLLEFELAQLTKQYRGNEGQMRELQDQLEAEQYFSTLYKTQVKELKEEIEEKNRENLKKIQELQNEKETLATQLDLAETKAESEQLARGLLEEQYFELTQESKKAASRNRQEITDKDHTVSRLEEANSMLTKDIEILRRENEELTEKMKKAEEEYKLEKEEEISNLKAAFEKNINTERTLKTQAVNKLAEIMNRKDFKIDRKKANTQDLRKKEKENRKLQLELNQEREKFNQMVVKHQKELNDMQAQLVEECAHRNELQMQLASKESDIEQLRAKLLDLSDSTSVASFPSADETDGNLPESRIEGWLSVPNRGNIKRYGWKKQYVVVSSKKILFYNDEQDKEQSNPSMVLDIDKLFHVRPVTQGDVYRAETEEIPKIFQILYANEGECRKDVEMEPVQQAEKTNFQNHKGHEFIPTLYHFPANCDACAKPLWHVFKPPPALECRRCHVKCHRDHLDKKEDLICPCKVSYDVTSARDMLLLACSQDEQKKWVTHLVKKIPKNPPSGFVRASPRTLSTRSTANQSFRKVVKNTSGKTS

Compound `CC1=C(C(=O)Nc2ccc3[nH]ncc3c2)C(c2ccc(F)c(C(=O)NCc3cc(C(F)(F)F)cc(C(F)(F)F)c3)c2)NC(=O)N1` (stereo not shown) [Example E13, 4-(3-((3,5-bis(trifluoromethyl)benzyl)carbamoyl)-4-fluorophenyl)-N-(1H-indazol-5-yl)-6-methyl-2-oxo-1,2,3,4-tetrahydropyrimidine-5-carboxamide] showed a half-inhibitory concentration (IC50) of 1900 nM. With `CC1=C(C(=O)Nc2ccc3[nH]ncc3c2)C(c2ccc(F)c(C(=O)NCc3cccc(F)c3)c2)NC(=O)N1` (stereo not shown) [Example E04, 4-(4-fluoro-3-((3-fluorobenzyl)carbamoyl)phenyl)-N-(1H-indazol-5-yl)-6-methyl-2-oxo-1,2,3,4-tetrahydropyrimidine-5-carboxamide] the figure was 21 nM; with `CC1=C(C(=O)Nc2ccc3[nH]ncc3c2)C(c2ccc(F)c(CC(=O)NCc3c(C)cccc3C)c2)NC(=O)N1` (stereo not shown) [Example E28, 4-(3-(2-((2,6-dimethylbenzyl)amino)-2-oxoethyl)-4-fluorophenyl)-N-(1H-indazol-5-yl)-6-methyl-2-oxo-1,2,3,4-tetrahydropyrimidine-5-carboxamide], 450 nM; with `CC1=C(C(=O)Nc2ccc3[nH]ncc3c2)C(c2ccc(F)c(C(=O)NCCc3ccccn3)c2)NC(=O)N1` (stereo not shown) [Example E03, 4-(4-fluoro-3-((2-(pyridin-2-yl)ethyl)carbamoyl)phenyl)-N-(1H-indazol-5-yl)-6-methyl-2-oxo-1,2,3,4-tetrahydropyrimidine-5-carboxamide], 23 nM. With `CC1=C(C(=O)Nc2ccc3[nH]ncc3c2)C(c2ccc(F)c(C(=O)NCc3c(C(F)(F)F)cccc3C(F)(F)F)c2)NC(=O)N1` (stereo not shown) [Example E17, 4-(3-((2,6-bis(trifluoromethyl)benzyl)carbamoyl)-4-fluorophenyl)-N-(1H-indazol-5-yl)-6-methyl-2-oxo-1,2,3,4-tetrahydropyrimidine-5-carboxamide] the figure was over 10000 nM; with `COc1cccc(CNC(=O)c2cc(C3NC(=O)NC(C)=C3C(=O)Nc3ccc4[nH]ncc4c3)ccc2F)c1` (stereo not shown) [Example E18, 4-(4-fluoro-3-((3-methoxybenzyl)carbamoyl)phenyl)-N-(1H-indazol-5-yl)-6-methyl-2-oxo-1,2,3,4-tetrahydropyrimidine-5-carboxamide], 97 nM. For the compound `CC1=C(C(=O)Nc2ccc3[nH]ncc3c2)C(c2ccc(F)c(C(=O)NCc3c(C)cccc3C)c2)NC(=O)N1` (stereo not shown) [Example E10, 4-(3-((2,6-dimethylbenzyl)carbamoyl)-4-fluorophenyl)-N-(1H-indazol-5-yl)-6-methyl-2-oxo-1,2,3,4-tetrahydropyrimidine-5 carboxamide], the concentration for half-maximal inhibition (IC50) was determined as 5800 nM. In turn, `CC1=C(C(=O)Nc2ccc3[nH]ncc3c2)C(c2ccc(F)cc2)NC(=O)N1` (stereo not shown) [GSK180736A, reference compound] gave an IC50 of 78 nM.

The compound `CNC(=O)c1cc(C2NC(=O)NC(C)=C2C(=O)Nc2ccc3[nH]ncc3c2)ccc1F` (stereo not shown) [Example E12, 4-(4-fluoro-3-(methylcarbamoyl)phenyl)-N-(1H-indazol-5-yl)-6-methyl-2-oxo-1,2,3,4-tetrahydropyrimidine-5-carboxamide] had a half-inhibitory concentration (IC50) of 190 nM. This IC50 is about 2.4-fold higher than that of the compound before. Then `CC1=C(C(=O)Nc2ccc3[nH]ncc3c2)C(c2ccc(F)c(CC(=O)NCc3c(C(F)(F)F)cccc3C(F)(F)F)c2)NC(=O)N1` (stereo not shown) [Example E29, 4-(3-(2-((2,6-bis(trifluoromethyl)benzyl)amino)-2-oxoethyl)-4-fluorophenyl)-N-(1H-indazol-5-yl)-6-methyl-2-oxo-1,2,3,4-tetrahydropyrimidine-5-carboxamide], with 400 nM; and `CC1=C(C(=O)Nc2ccc3[nH]ncc3c2)C(c2ccc(F)c(C(=O)NCc3ccccc3)c2)NC(=O)N1` (stereo not shown) [Example E16, 4-(3-(benzylcarbamoyl)-4-fluorophenyl)-N-(1H-indazol-5-yl)-6-methyl-2-oxo-1,2,3,4-tetrahydropyrimidine-5-carboxamide], with 69 nM. With `COc1cccc(OC)c1CNC(=O)Cc1cc(C2NC(=O)NC(C)=C2C(=O)Nc2ccc3[nH]ncc3c2)ccc1F` (stereo not shown) [Example E30, 4-(3-(2-((2,6-dimethoxybenzyl)amino)-2-oxoethyl)-4-fluorophenyl)-N-(1H-indazol-5-yl)-6-methyl-2-oxo-1,2,3,4-tetrahydropyrimidine-5-carboxamide] the figure was 200 nM; with `CC1=C(C(=O)Nc2ccc3[nH]ncc3c2)C(c2ccc(F)c(C(=O)NCc3ccccn3)c2)NC(=O)N1` (stereo not shown) [Example E01, 4-(4-fluoro-3-((pyridin-2-ylmethyl)carbamoyl)phenyl)-N-(1H-indazol-5-yl)-6-methyl-2-oxo-1,2,3,4-tetrahydropyrimidine-5-carboxamide], 11 nM; with `CC1=C(C(=O)Nc2ccc3[nH]ncc3c2)C(c2ccc(F)c(C(=O)NCc3c(Cl)cccc3Cl)c2)NC(=O)N1` (stereo not shown) [Example E09, 4-(3-((2,6-dichlorobenzyl)carbamoyl)-4-fluorophenyl)-N-(1H-indazol-5-yl)-6-methyl-2-oxo-1,2,3,4-tetrahydropyrimidine-5-carboxamide], 6700 nM.

`CC1=C(C(=O)Nc2ccc3[nH]ncc3c2)C(c2ccc(F)c(C(=O)NCCc3c(C)cccc3C)c2)NC(=O)N1` (stereo not shown) [Example E14, 4-(3-((2,6-dimethylphenethyl)carbamoyl)-4-fluorophenyl)-N-(1H-indazol-5-yl)-6-methyl-2-oxo-1,2,3,4-tetrahydropyrimidine-5-carboxamide] had an IC50 of 290 nM. For `COc1cccc(OC)c1CNC(=O)c1cc(C2NC(=O)NC(C)=C2C(=O)Nc2ccc3[nH]ncc3c2)ccc1F` (stereo not shown) [Example E11, 4-(3-((2,6-dimethoxybenzyl)carbamoyl)-4-fluorophenyl)-N-(1H-indazol-5-yl)-6-methyl-2-oxo-1,2,3,4-tetrahydropyrimidine-5-carboxamide], the IC50 was over 10000 nM.

For the compound `COc1ccc(CNC(=O)c2cc(C3NC(=O)NC(C)=C3C(=O)Nc3ccc4[nH]ncc4c3)ccc2F)cc1` (stereo not shown) [Example E06, 4-(4-fluoro-3-((4-methoxybenzyl)carbamoyl)phenyl)-N-(1H-indazol-5-yl)-6-methyl-2-oxo-1,2,3,4-tetrahydropyrimidine-5-carboxamide], the IC50 turned out to be 50 nM. Then `CC1=C(C(=O)Nc2ccc3[nH]ncc3c2)C(c2ccc(F)c(C(=O)NCCc3ccncc3)c2)NC(=O)N1` (stereo not shown) [Example E07, 4-(4-fluoro-3-((2-(pyridin-4-yl)ethyl)carbamoyl)phenyl)-N-(1H-indazol-5-yl)-6-methyl-2-oxo-1,2,3,4-tetrahydropyrimidine-5-carboxamide], with over 100000 nM; and `CC1=C(C(=O)Nc2ccc3[nH]ncc3c2)C(c2ccc(F)c(C(=O)NCc3ncccc3C)c2)NC(=O)N1` (stereo not shown) [Example E15, 4-(4-fluoro-3-(((3-methylpyridin-2-yl)methyl)carbamoyl)phenyl)-N-(1H-indazol-5-yl)-6-methyl-2-oxo-1,2,3,4-tetrahydropyrimidine-5-carboxamide], with 150 nM.
